Experimental data published in ChEMBL document CHEMBL5442175, “EUbOPEN Chemogenomics Library - PDSP Secondary Binding” (2024).

Assays:
[1] = biological target: T1, Muscarinic acetylcholine receptor M5 (Homo sapiens, UniProt P08912); test: (§1) PDSP Secondary Binding target: CHRM5 - Compounds are tested at 10 uM concentration, plate are incubated at room temperature in the dark for 90 minutes. Reaction are stopped by vacuum filtration onto 0.3% polyethyleneimine soaked filter mats using Filtermate harvester. Scintillation cocktail is then melted onto microwave-dried filters on a hot plate and the radio activity is counted in Microbia counter.
T1 sequence (P08912 whole entry): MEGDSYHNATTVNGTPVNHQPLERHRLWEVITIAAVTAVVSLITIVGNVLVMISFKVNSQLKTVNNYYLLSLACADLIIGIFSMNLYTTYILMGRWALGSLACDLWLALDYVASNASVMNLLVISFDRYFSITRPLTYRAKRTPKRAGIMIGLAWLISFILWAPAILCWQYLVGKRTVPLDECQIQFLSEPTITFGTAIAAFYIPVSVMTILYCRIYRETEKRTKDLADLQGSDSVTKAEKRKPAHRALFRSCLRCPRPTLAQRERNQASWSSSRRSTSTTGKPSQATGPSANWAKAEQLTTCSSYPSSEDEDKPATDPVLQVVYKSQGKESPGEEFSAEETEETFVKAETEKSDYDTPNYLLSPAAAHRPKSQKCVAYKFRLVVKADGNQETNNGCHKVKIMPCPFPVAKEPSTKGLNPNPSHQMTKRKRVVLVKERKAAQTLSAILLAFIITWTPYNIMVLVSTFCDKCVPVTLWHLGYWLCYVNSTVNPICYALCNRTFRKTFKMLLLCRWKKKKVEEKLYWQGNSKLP

[2] = biological target: T2, Alpha-2A adrenergic receptor (Homo sapiens, UniProt P08913); test: as §1, with “ADRA2A” for “CHRM5”
T2 sequence (P08913 whole entry): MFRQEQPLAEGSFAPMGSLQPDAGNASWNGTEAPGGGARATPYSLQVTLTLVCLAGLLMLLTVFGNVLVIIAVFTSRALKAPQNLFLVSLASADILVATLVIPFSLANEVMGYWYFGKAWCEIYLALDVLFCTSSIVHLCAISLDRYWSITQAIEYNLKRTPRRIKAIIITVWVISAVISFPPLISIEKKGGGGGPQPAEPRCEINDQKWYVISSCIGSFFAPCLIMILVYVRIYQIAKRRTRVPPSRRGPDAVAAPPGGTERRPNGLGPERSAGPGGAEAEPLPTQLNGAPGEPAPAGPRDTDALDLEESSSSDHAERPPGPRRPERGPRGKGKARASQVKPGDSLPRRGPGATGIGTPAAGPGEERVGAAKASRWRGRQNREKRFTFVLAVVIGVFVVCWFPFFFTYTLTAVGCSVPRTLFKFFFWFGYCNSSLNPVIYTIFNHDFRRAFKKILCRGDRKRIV

[3] = biological target: Beta-3 adrenergic receptor (Homo sapiens, UniProt P13945); test: as §1, with “ADRB3” for “CHRM5”
[4] = biological target: Sigma intracellular receptor 2 (Homo sapiens, UniProt Q5BJF2); test: as §1, with “TMEM97” for “CHRM5”
[5] = biological target: Translocator protein (Homo sapiens, UniProt P30536); test: as §1, with “TSPO” for “CHRM5”
[6] = biological target: Sigma non-opioid intracellular receptor 1 (Homo sapiens, UniProt Q99720); test: as §1, with “SIGMAR1” for “CHRM5”
[7] = biological target: T3, Alpha-2B adrenergic receptor (Homo sapiens, UniProt P18089); test: as §1, with “ADRA2B” for “CHRM5”
T3 sequence (P18089 whole entry): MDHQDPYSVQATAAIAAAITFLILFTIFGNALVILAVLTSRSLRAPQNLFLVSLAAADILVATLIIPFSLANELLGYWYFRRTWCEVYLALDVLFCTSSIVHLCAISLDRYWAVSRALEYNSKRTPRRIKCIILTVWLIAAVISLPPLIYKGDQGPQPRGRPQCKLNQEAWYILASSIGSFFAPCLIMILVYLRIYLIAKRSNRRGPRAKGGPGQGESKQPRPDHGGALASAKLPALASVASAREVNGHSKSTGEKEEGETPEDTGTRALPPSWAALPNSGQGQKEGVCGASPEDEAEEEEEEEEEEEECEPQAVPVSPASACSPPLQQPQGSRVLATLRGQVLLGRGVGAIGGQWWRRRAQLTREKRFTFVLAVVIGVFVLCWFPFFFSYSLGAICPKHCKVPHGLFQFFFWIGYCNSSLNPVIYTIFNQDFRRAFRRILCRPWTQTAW

[8] = biological target: Sodium-dependent dopamine transporter (Homo sapiens, UniProt Q01959); test: as §1, with “SLC6A3” for “CHRM5”
[9] = biological target: D(3) dopamine receptor (Homo sapiens, UniProt P35462); test: as §1, with “DRD3” for “CHRM5”
[10] = biological target: 5-hydroxytryptamine receptor 2B (Homo sapiens, UniProt P41595); test: as §1, with “HTR2B” for “CHRM5”
[11] = biological target: T4, Alpha-2C adrenergic receptor (Homo sapiens, UniProt P18825); test: as §1, with “ADRA2C” for “CHRM5”
T4 sequence (P18825 whole entry): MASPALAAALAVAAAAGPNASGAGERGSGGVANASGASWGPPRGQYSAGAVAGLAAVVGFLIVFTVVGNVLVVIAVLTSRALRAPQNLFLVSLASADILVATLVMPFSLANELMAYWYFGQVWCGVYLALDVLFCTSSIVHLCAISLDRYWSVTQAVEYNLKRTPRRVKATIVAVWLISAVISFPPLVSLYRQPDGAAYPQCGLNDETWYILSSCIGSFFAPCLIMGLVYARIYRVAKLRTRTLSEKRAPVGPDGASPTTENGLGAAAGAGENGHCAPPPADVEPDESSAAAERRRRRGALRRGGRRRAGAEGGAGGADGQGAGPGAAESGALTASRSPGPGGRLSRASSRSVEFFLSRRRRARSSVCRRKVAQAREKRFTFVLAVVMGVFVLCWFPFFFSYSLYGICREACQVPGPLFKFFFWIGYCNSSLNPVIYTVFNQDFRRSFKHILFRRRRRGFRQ

[12] = biological target: D(1B) dopamine receptor (Homo sapiens, UniProt P21918); test: as §1, with “DRD5” for “CHRM5”
[13] = biological target: Kappa-type opioid receptor (Homo sapiens, UniProt P41145); test: as §1, with “OPRK1” for “CHRM5”
[14] = biological target: Mu-type opioid receptor (Homo sapiens, UniProt P35372); test: as §1, with “OPRM1” for “CHRM5”
[15] = biological target: Sodium-dependent serotonin transporter (Homo sapiens, UniProt P31645); test: as §1, with “SLC6A4” for “CHRM5”
[16] = biological target: Sodium-dependent noradrenaline transporter (Homo sapiens, UniProt P23975); test: as §1, with “SLC6A2” for “CHRM5”
[17] = biological target: T5, Alpha-1B adrenergic receptor (Homo sapiens, UniProt P35368); test: as §1, with “ADRA1B” for “CHRM5”
T5 sequence (P35368 whole entry): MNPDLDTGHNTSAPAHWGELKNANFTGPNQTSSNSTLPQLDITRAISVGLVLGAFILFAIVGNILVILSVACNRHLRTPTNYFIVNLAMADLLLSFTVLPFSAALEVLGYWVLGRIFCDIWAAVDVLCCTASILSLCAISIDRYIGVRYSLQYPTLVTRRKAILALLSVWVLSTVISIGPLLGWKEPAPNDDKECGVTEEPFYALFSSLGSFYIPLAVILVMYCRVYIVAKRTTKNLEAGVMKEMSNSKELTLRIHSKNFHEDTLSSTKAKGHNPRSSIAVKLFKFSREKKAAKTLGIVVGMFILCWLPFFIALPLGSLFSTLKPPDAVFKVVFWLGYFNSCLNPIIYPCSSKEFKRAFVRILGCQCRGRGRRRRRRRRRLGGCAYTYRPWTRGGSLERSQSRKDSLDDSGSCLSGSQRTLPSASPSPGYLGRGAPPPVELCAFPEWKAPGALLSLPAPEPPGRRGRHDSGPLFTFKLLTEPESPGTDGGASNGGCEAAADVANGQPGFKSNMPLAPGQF

[18] = biological target: T6, D(4) dopamine receptor (Homo sapiens, UniProt P21917); test: as §1, with “DRD4” for “CHRM5”
T6 sequence (P21917 whole entry): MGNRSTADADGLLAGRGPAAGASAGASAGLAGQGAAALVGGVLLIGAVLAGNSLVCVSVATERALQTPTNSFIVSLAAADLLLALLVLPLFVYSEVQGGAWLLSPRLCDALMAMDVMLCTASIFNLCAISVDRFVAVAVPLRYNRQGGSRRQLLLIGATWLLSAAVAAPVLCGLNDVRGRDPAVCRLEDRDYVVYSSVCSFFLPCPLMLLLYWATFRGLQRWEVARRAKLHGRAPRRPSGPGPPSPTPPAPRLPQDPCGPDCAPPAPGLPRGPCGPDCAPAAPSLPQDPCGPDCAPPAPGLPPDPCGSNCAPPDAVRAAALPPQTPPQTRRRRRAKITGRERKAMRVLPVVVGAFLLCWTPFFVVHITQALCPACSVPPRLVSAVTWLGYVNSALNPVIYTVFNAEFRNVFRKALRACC

[19] = biological target: T7, 5-hydroxytryptamine receptor 2C (Homo sapiens, UniProt P28335); test: as §1, with “HTR2C” for “CHRM5”
T7 sequence (P28335 whole entry): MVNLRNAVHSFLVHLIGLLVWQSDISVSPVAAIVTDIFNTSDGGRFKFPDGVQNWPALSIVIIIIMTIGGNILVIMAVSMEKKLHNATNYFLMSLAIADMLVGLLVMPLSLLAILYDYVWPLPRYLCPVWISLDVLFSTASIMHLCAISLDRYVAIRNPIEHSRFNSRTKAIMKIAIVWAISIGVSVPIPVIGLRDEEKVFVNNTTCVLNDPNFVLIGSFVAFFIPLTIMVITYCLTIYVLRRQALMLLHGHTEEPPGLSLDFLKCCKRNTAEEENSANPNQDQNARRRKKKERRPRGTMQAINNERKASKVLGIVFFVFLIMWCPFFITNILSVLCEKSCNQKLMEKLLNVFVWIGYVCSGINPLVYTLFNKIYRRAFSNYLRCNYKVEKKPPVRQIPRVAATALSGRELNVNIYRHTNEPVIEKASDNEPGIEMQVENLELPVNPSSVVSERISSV

[20] = biological target: 5-hydroxytryptamine receptor 2A (Homo sapiens, UniProt P28223); test: as §1, with “HTR2A” for “CHRM5”
Chain of 5-hydroxytryptamine receptor 2A (P28223 whole entry): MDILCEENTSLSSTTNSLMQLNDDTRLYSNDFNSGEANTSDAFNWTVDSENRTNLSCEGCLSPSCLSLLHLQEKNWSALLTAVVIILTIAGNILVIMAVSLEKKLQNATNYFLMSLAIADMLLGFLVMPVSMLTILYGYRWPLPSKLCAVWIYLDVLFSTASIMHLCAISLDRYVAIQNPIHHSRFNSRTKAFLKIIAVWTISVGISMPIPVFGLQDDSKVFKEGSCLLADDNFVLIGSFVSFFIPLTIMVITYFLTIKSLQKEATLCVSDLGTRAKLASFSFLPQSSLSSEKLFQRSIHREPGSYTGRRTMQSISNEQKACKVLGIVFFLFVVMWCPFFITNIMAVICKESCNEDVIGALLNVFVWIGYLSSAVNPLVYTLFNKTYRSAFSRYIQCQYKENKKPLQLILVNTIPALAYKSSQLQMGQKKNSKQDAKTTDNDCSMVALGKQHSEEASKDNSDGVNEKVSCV

Chain of Sodium-dependent dopamine transporter (Q01959 whole entry): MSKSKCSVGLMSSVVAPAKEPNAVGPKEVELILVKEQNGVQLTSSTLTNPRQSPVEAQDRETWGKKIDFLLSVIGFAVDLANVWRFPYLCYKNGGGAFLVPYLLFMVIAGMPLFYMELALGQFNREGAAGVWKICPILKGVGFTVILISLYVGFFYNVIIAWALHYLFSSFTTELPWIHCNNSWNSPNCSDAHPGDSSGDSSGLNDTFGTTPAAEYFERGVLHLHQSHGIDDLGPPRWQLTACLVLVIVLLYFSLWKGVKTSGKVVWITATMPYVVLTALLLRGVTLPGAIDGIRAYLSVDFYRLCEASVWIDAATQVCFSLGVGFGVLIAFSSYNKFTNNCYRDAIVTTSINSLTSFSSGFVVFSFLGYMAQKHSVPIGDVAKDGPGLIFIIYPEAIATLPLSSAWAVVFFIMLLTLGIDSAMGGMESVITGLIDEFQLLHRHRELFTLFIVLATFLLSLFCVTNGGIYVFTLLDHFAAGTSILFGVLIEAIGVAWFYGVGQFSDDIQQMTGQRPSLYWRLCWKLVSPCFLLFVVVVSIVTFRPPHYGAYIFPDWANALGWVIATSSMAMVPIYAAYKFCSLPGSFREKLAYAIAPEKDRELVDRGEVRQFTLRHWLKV
Chain of Sigma intracellular receptor 2 (Q5BJF2 whole entry): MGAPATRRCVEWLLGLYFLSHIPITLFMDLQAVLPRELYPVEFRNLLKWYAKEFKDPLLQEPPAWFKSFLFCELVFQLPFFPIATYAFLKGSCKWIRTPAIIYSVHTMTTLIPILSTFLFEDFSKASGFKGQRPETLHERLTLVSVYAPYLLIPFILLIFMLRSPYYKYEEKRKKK
Chain of D(1B) dopamine receptor (P21918 whole entry): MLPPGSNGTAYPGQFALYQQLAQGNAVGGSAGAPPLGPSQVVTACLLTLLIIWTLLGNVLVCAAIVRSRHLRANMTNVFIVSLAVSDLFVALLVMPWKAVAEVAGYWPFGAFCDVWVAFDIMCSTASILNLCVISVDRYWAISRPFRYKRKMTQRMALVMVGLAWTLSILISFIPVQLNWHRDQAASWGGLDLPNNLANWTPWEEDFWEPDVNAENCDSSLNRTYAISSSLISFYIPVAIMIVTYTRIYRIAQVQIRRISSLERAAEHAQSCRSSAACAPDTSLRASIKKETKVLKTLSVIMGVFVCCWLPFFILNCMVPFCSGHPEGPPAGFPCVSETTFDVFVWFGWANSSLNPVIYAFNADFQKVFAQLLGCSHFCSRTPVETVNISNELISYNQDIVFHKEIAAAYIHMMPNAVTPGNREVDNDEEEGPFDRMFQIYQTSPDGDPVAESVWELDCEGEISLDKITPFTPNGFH
Chain of Beta-3 adrenergic receptor (P13945 whole entry): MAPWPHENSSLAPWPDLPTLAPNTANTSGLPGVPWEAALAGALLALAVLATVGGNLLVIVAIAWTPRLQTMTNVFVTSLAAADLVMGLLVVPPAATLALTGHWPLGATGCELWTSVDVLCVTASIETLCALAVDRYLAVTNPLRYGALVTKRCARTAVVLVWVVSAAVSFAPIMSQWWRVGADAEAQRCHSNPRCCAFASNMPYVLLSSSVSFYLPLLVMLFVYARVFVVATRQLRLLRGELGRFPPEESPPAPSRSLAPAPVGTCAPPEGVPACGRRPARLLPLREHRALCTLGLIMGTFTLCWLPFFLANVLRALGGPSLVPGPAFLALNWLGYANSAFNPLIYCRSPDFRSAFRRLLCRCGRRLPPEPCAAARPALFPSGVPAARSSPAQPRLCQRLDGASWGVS
Chain of D(3) dopamine receptor (P35462 whole entry): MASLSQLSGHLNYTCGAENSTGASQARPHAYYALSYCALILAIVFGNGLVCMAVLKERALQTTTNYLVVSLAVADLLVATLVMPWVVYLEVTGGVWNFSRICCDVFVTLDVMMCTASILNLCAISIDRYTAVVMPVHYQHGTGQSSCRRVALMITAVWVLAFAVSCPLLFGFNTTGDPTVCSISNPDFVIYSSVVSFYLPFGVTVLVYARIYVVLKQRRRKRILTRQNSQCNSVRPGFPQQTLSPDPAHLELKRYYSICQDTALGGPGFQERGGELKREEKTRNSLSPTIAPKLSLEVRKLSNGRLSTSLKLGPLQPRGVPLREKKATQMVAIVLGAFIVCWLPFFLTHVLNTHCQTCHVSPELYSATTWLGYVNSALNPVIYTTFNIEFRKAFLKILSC
Chain of Translocator protein (P30536 whole entry): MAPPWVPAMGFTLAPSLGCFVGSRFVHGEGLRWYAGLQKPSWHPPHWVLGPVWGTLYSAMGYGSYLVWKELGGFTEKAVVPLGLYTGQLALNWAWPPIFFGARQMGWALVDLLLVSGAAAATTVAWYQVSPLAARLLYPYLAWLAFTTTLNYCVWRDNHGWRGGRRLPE
Chain of 5-hydroxytryptamine receptor 2B (P41595 whole entry): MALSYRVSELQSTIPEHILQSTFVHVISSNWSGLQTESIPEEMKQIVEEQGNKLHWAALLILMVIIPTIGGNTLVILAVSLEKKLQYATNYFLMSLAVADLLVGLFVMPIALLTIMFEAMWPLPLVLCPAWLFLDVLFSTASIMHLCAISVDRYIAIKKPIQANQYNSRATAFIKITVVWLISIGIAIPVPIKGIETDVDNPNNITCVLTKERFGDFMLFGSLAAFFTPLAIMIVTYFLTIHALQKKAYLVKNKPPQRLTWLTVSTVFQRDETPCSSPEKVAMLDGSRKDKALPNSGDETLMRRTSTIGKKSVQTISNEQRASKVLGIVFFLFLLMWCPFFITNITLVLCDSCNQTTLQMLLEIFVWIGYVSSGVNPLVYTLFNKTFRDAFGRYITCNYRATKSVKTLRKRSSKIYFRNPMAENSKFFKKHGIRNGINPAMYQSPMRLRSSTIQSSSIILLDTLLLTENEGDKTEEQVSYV
Chain of Sodium-dependent noradrenaline transporter (P23975 whole entry): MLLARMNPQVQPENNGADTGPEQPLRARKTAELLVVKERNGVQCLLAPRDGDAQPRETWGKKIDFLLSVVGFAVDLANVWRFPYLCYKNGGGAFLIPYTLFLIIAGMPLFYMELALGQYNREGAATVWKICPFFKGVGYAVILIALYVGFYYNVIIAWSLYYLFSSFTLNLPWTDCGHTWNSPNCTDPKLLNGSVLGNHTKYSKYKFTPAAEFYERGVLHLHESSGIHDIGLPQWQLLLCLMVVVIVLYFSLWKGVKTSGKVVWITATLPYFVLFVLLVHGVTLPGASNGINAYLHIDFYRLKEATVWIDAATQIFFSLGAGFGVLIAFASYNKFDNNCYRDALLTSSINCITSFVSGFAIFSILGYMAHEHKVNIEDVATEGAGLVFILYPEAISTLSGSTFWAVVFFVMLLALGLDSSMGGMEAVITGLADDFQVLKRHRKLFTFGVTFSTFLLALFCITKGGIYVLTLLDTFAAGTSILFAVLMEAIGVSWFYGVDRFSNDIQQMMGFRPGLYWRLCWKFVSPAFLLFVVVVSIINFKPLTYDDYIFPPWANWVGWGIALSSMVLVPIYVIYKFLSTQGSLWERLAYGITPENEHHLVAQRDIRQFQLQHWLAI
Chain of Mu-type opioid receptor (P35372 whole entry): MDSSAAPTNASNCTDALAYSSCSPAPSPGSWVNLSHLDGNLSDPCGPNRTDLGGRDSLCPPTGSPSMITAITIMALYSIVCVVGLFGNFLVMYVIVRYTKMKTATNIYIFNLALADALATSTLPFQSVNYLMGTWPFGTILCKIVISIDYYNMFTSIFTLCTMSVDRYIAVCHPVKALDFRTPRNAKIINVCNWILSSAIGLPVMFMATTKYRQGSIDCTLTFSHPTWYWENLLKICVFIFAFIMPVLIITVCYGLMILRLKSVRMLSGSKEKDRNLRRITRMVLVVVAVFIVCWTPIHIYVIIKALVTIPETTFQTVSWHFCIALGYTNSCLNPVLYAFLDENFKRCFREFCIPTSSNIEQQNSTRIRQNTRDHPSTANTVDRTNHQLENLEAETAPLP
Chain of Kappa-type opioid receptor (P41145 whole entry): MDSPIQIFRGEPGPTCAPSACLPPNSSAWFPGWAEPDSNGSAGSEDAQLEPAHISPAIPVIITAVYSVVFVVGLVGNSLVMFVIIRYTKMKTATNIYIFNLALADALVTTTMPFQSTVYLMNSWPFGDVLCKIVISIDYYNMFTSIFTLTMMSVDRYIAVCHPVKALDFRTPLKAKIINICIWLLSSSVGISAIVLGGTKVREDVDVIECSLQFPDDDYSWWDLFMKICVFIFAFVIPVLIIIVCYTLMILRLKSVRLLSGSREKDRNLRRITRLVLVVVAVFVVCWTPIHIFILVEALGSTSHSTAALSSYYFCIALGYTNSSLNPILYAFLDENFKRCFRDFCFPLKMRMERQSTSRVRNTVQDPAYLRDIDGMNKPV
Chain of Sigma non-opioid intracellular receptor 1 (Q99720 whole entry): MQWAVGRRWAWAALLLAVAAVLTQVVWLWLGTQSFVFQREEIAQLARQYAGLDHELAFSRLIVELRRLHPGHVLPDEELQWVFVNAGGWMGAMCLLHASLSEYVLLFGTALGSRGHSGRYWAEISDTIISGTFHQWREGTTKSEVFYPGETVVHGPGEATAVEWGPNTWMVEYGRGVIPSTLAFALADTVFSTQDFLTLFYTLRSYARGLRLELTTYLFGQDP

In the case of `CCC[C@H](Oc1cc(C)c(-n2cc(C(F)(F)F)cn2)c(C)c1)c1ccc(C(=O)NCCC(=O)O)cc1` [PF-06291874], the Ki [1] is reported as 8580 nM, the Ki [2] is reported as greater than 10000 nM and the Ki [3] is reported as greater than 10000 nM.
In the case of `Cc1nc(C#Cc2ccnc(Cl)c2)c(C)n1-c1ccc(OC(F)(F)F)cc1`, the Ki [4] is reported as 1710 nM, the Ki [5] is reported as 1950 nM and the Ki [6] is reported as 2690 nM. It also gave a Ki [3] of 6980 nM and a Ki [7] greater than 10000 nM.
With `Cc1cc([C@@H](C)Nc2cccc(-c3cc(C)c(C(=O)N[C@@H](C)C(=O)O)c(C)c3)c2)ccc1Cl` the Ki [5] was 1380 nM, the Ki [8] was 402 nM and the Ki [9] was 1110 nM. The Ki [2] was greater than 10000 nM, the Ki [3] was greater than 10000 nM and the Ki [10] was 2480 nM.
`CC1CCN(CC[C@H]2CCCN2S(=O)(=O)c2cccc(O)c2)CC1` gave a Ki [11] of 1740 nM, a Ki [4] of 10.2 nM and a Ki [12] greater than 10000 nM. The Ki [9] was 568 nM, the Ki [13] was 448 nM and the Ki [14] was 185 nM. For the same compound, the Ki [2] was 1180 nM, the Ki [7] was 311 nM and the Ki [15] was greater than 10000 nM.
For `CC(C)NCC(O)c1ccc(N)c(C#N)c1` (stereo unspecified) [CIMATEROL], the Ki [3] was 1870 nM.
`NC[C@@H]1O[C@H](C23CC4CC(CC(C4)C2)C3)Cc2c1ccc(O)c2O` gave a Ki [16] of 951 nM, a Ki [11] of 71.7 nM and a Ki [4] of 754 nM. For the same compound, the Ki [12] was 3.02 nM, the Ki [8] was 478 nM and the Ki [9] was 545 nM. For the same compound, the Ki [17] was 4210 nM, the Ki [2] was 898 nM and the Ki [18] was 562 nM. For the same compound, the Ki [7] was 890 nM.
`O=C(c1cc2c(cc1F)OC(c1ccc(F)cc1)(c1ccc(Cl)cc1Cl)O2)N1CCOCC1` (stereo unspecified) gave a Ki [16] of 2540 nM, a Ki [4] of 509 nM and a Ki [12] of 708 nM. It also gave a Ki [19] of 319 nM, a Ki [8] of 3460 nM and a Ki [13] of 503 nM. It also gave a Ki [20] of 2660 nM, a Ki [14] of 3140 nM and a Ki [10] of 607 nM.
In the case of `N#Cc1ccc(NC(=O)Nc2ccccc2Br)c2nn[nH]c12`, the Ki [5] is reported as 3030 nM, the Ki [8] is reported as 2850 nM and the Ki [3] is reported as 8660 nM.
